US20260001879A1, “COMPOUNDS AS MYT1 INHIBITORS” (WIGEN BIOMMEDICINE TECHNOLOGY (SHANGHAI) CO., LTD., priority 2022, published 2026)
One block for each compound: values may come before it.

Tests used:
[1] = tested on: MIA PaCa-2 cells; assay: In vitro anti-proliferative activity against MIA PaCa-2 cells (compound alone); format: cell-based; settings: intracellular ATP content
Experimental: (§1) MIA PaCa-2 cells were seeded on a 384-well plate at 3000 cells/well. After overnight adherence culture, DMSO or the compounds serially diluted 1:5 from 10 μM were added. The viability was assessed 72 h after dosing by measuring the intracellular ATP content. The inhibition percentage of viable cells by the compounds was calculated by comparing with the DMSO group, and the IC50 value was calculated.

[2] = tested on: MIA PaCa-2 cells; assay: In vitro anti-proliferative activity in combination with gemcitabine against MIA PaCa-2 cells; format: cell-based
Experimental: as §1, with “cells/well, and 20 nM gemcitabine was added.” for “cells/well.”, “1000 nM” for “10 μM”

[3] = target: recombinant protein MYT1 (Homo sapiens (Human), UniProt Q99640); assay: In vitro assay for inhibiting MYT1 kinase activity (ADP-GLO); format: biochemical; settings: 10 μM ATP, read-out: Inhibitory activity against recombinant protein MYT1 IC50
recombinant protein MYT1, sequence (Q99640 whole entry): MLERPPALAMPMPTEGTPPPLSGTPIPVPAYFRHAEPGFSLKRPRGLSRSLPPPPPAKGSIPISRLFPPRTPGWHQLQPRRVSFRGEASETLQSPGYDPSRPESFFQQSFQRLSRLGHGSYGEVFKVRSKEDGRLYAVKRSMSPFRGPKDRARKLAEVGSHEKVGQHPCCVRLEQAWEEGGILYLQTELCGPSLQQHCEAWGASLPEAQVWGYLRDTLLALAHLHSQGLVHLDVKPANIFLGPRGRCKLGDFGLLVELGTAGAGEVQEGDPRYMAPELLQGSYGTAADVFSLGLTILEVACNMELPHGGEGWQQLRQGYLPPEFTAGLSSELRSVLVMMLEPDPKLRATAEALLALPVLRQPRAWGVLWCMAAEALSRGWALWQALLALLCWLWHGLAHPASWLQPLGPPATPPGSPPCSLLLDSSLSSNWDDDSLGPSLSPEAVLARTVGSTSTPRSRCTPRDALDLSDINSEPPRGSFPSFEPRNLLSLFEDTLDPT
Experimental: Recombinant MYT1 protein and the compounds were pre-incubated at room temperature for 15 min, and 10 μM ATP was then added to start the reaction. The mixture was incubated at room temperature for another 60 min, and the ADP-GLO reagent from Promega was then added. The resulting mixture was incubated in the dark for 40 min, a detection solution was then added, and the mixture was incubated for another 45-60 min. The chemiluminescence was determined using ENVISION. The inhibition rate and IC50 were calculated compared to the DMSO group.

[4] = in vitro; settings: dog
Experimental: (§2) In vitro passive permeability or the ability to serve as a P-glycoprotein (P-gp) transport substrate was tested using MDCK cells (MDCK wild type) or MDCK cells stably transduced with MDRI (MDCK-MDRI), respectively. The permeability experiment was performed in duplicate in a transwell system at a single concentration (5 μM). The cells were incubated for […] Apical-to-basolateral (A to B, A-B) transport and basolateral-to-apical (B to A, B-A) transport of the corresponding compound were determined, and the permeation rate (apparent permeability) (Papp×10^−6 cm/sec) and efflux ratio (Papp (B−A)/Papp (A−B)) of the test compound were calculated.

[5] = tested on: P-glycoprotein (P-gp, MDR1); assay: in vitro; settings: dog; for Papp A→B / Papp B→A: 5 μM
Experimental: as §2

[6] = read-out: Anti-proliferative activity against MIA PaCa-2 cells (20 nM gemcitabine) IC50, with 20 nM gemcitabine, 72 h, intracellular ATP content
[7] = Homo sapiens, MIA PaCa-2, 72 h, read-out: Anti-proliferative activity against MIA PaCa-2 cells (20 nM gemcitabine) IC50, with 20 nM gemcitabine, 72 h, intracellular ATP content

Compound: Cc1ccc(O)c(C)c1-n1c(N)c(C(N)=O)c2cc3c(nc21)CCN(C)C3 (atropisomer, axis not shown) [Compound 98]
- IC50 ([1]; 72 h): > 10000 nM
- IC50 [2, 6]: > 1000 nM
- IC50 [3]: ≤ 200 nM

Compound: C[C@H]1O[C@@H](O[C@H]2[C@@H](O)C[C@H](O[C@H]3[C@@H](O)C[C@H](O[C@H]4CC[C@@]5(C)[C@H](CC[C@@H]6[C@@H]5C[C@@H](O)[C@]5(C)[C@@H](C7=CC(=O)OC7)CC[C@]65O)C4)O[C@@H]3C)O[C@@H]2C)C[C@H](O)[C@@H]1O [Digoxin]
- efflux ratio at 90 min, 5 μM ([4]; MDCK): 2.69
- Papp A→B at 90 min, 5 µM ([4]; MDCK, Papp A-B Mean): 1.79 ×10⁻⁶ cm/s
- Papp A→B at 90 min, 5 µM ([4]; MDCK, Papp A-B Sample - 01): 1.9 ×10⁻⁶ cm/s
- Papp A→B at 90 min, 5 µM ([4]; MDCK, Papp A-B Sample - 02): 1.68 ×10⁻⁶ cm/s
- Papp B→A at 90 min, 5 µM ([4]; MDCK, Papp B-A Mean): 4.8 ×10⁻⁶ cm/s
- Papp B→A at 90 min, 5 µM ([4]; MDCK, Papp B-A Sample - 01): 4.64 ×10⁻⁶ cm/s
- Papp B→A at 90 min, 5 µM ([4]; MDCK, Papp B-A Sample - 02): 4.96 ×10⁻⁶ cm/s
- efflux ratio at 90 min, 5 μM ([5]; MDCK-MDR1): 21.4
- Papp A→B at 90 min, 5 µM ([5]; MDCK-MDR1, Papp A-B Mean): 0.96 ×10⁻⁶ cm/s
- Papp A→B at 90 min, 5 µM ([5]; MDCK-MDR1, Papp A-B Sample - 01): 0.96 ×10⁻⁶ cm/s
- Papp A→B at 90 min, 5 µM ([5]; MDCK-MDR1, Papp A-B Sample - 02): 0.96 ×10⁻⁶ cm/s
- Papp B→A at 90 min, 5 µM ([5]; MDCK-MDR1, Papp B-A Mean): 20.6 ×10⁻⁶ cm/s
- Papp B→A at 90 min, 5 µM ([5]; MDCK-MDR1, Papp B-A Sample - 01): 17.7 ×10⁻⁶ cm/s
- Papp B→A at 90 min, 5 µM ([5]; MDCK-MDR1, Papp B-A Sample - 02): 23.5 ×10⁻⁶ cm/s

Compound: Cc1ccc(O)c(C)c1-n1c(N)c(C(N)=O)c2cc3c(nc21)COC3 [Compound 16]
- IC50 ([1]; Homo sapiens, MIA PaCa-2, 72 h): > 10000 nM
- IC50 [2, 6]: 101 nM
- IC50 [3]: ≤ 200 nM

Compound: Cc1ccc(O)c(C)c1-n1c(N)c(C(N)=O)c2cc(C#N)c(C)nc21 [Compound 10]
- IC50 ([1]; 72 h): 4240 nM
- IC50 [2, 6]: 45 nM
- IC50 [3]: ≤ 200 nM

Compound: Cc1cc2c(C(N)=O)c(N)n(-c3c(C)ccc(O)c3C)c2nc1C#N [Compound 12]
- IC50 [2, 7]: 228 nM
- IC50 [3]: ≤ 200 nM

Compound: Cc1cc2c(C(N)=O)c(N)n(-c3c(C)c(O)cc(F)c3C)c2nc1C (single isomer, unassigned) [Compound 3]
- IC50 ([1]; 72 h): > 10000 nM
- IC50 [2, 6]: 1230 nM
- IC50 [3]: ≤ 200 nM

Compound: Cc1ccc(O)c(C)c1-n1c(N)c(C(N)=O)c2cc(C#N)c(C)nc21 [Compound 11]
- IC50 ([1]; 72 h): > 10000 nM
- IC50 [2, 6]: > 1000 nM
- IC50 [3]: ≤ 200 nM

Compound: COCCc1ccc(OCC(O)CNC(C)C)cc1 (stereo not shown) [Metoprolol, metoprolol]
- Papp A→B at 90 min, 5 µM ([4]; Papp A-B Mean, MDCK-Wild type, A-B, 5 μM, mean): 24.3 ×10⁻⁶ cm/s
- Papp A→B at 90 min, 5 µM ([4]; Papp A-B Sample - 01, MDCK-Wild type, A-B, 5 μM, replicate 01): 26.5 ×10⁻⁶ cm/s
- Papp A→B at 90 min, 5 µM ([4]; Papp A-B Sample - 02, MDCK-Wild type, A-B, 5 μM, replicate 02): 22.2 ×10⁻⁶ cm/s
- Papp B→A at 90 min, 5 µM ([4]; Papp B-A Mean, MDCK-Wild type, B-A, 5 μM, mean): 21.3 ×10⁻⁶ cm/s
- Papp B→A at 90 min, 5 µM ([4]; Papp B-A Sample - 01, MDCK-Wild type, B-A, 5 μM, replicate 01): 18.6 ×10⁻⁶ cm/s
- Papp B→A at 90 min, 5 µM ([4]; Papp B-A Sample - 02, MDCK-Wild type, B-A, 5 μM, replicate 02): 24 ×10⁻⁶ cm/s
- Papp A→B ([5]; MDCK-MDR1, Papp A-B Mean, MDCK-MDR1, A-B, mean): 37 ×10⁻⁶ cm/s
- Papp A→B ([5]; MDCK-MDR1, Papp A-B Sample - 01, MDCK-MDR1, A-B, replicate 01): 37.6 ×10⁻⁶ cm/s
- Papp A→B ([5]; MDCK-MDR1, Papp A-B Sample - 02, MDCK-MDR1, A-B, replicate 02): 36.3 ×10⁻⁶ cm/s
- Papp B→A ([5]; MDCK-MDR1, Papp B-A Mean, MDCK-MDR1, B-A, mean): 20.1 ×10⁻⁶ cm/s
- Papp B→A ([5]; MDCK-MDR1, Papp B-A Sample - 01, MDCK-MDR1, B-A, replicate 01): 20.1 ×10⁻⁶ cm/s
- Papp B→A ([5]; MDCK-MDR1, Papp B-A Sample - 02, MDCK-MDR1, B-A, replicate 02): 20.2 ×10⁻⁶ cm/s

Compound: Cc1ccc(O)c(C)c1-n1c(N)c(C(N)=O)c2cc3c(nc21)COC3 [Compound 17]
- IC50 ([1]; 72 h): > 10000 nM
- IC50 [2, 6]: > 1000 nM
- IC50 [3]: ≤ 200 nM

Compound: Cc1ccc(O)c(C)c1-n1c(N)c(C(N)=O)c2cc3c(nc21)N(C)CCC3 [Compound 105]
- IC50 [3]: ≤ 200 nM

Compound: Cc1ccc(O)c(C)c1-n1c(N)c(C(N)=O)c2cc3ccsc3nc21 [Compound 74]
- IC50 [3]: ≤ 200 nM

Compound: Cc1cc2c(cc1C#N)c(C(N)=O)c(N)n2-c1c(C)c(O)cc(F)c1C [Compound 160]
- IC50 [3]: ≤ 200 nM

Compound: Cc1cc2c(C(N)=O)c(N)n(-c3c(C)c(O)cc(F)c3C)c2cc1C#N [Compound 166]
- IC50 [3]: ≤ 200 nM

Compound: Cc1ccc(O)c(C)c1-n1c(N)c(C(N)=O)c2cc3cnncc3nc21 [Compound 56]
- IC50 [3]: ≤ 200 nM

Compound: Cc1ccc(O)c(C)c1-n1c(N)c(C(N)=O)c2cc3ncoc3nc21 [Compound 67]
- IC50 [3]: ≤ 200 nM

Compound: Cc1ccc(O)c(C)c1-n1c(N)c(C(N)=O)c2cc3c(nc21)COC3 [Compound 15]
- IC50 [3]: ≤ 200 nM

Compound: Cc1ccc(O)c(C)c1-n1c(N)c(C(N)=O)c2cnc(C#N)cc21 [Compound 172]
- IC50 [3]: ≤ 200 nM

Compound: Cc1ccc(O)c(C)c1-n1c(N)c(C(N)=O)c2cc3cccnc3nc21 [Compound 41]
- IC50 [3]: ≤ 200 nM

Compound: Cc1ccc(O)c(C)c1-n1c(N)c(C(N)=O)c2cc3ccncc3nc21 [Compound 44]
- IC50 [3]: ≤ 200 nM

Compound: Cc1ccc(O)c(C)c1-n1c(N)c(C(N)=O)c2cc3c(nc21)CCN(C)C3 [Compound 97]
- IC50 ([1]; Homo sapiens, MIA PaCa-2, 72 h): > 10000 nM
- IC50 [2, 6]: 101 nM
- IC50 [3]: ≤ 200 nM

Next, values leading:

- IC50 [2, 7]: > 1000 nM
Compound: Cc1cc2c(C(N)=O)c(N)n(-c3c(C)c(O)cc4c3CCC4)c2nc1C [Compound 116]

- IC50 [2, 6]: > 1000 nM
Compound: Cc1cc2c(C(N)=O)c(N)n(-c3c(C)cc4c(c3C)NCC4)c2nc1C [Compound 151]

- IC50 [2, 7]: > 1000 nM
Compound: Cc1cc2c(C(N)=O)c(N)n(-c3c(C)cc4c(c3C)NCC4)c2nc1C [Compound 150]

- IC50 ([1]; Homo sapiens, MIA PaCa-2, 72 h): > 10000 nM
- IC50 [2, 6]: 165 nM
- IC50 [3]: ≤ 200 nM
Compound: Cc1cc2c(C(N)=O)c(N)n(-c3c(C)cc(F)c(O)c3C)c2nc1C (single isomer, unassigned) [Compound 6]

- IC50 ([1]; 72 h): > 10000 nM
- IC50 [2, 6]: > 1000 nM
- IC50 [3]: ≤ 200 nM
Compound: Cc1cc2c(C(N)=O)c(N)n(-c3c(C)cc(F)c(O)c3C)c2nc1C (single isomer, unassigned) [Compound 7]

- IC50 [2, 6]: > 1000 nM
Compound: Cc1cc2c(C(N)=O)c(N)n(-c3c(C)c(O)cc4c3CCC4)c2nc1C (atropisomer, axis not shown) [Compound 117]

- IC50 [2, 7]: > 1000 nM
- IC50 [3]: ≤ 200 nM
Compound: Cc1cc2c(C(N)=O)c(N)n(-c3c(C)cc4cc[nH]c4c3C)c2nc1C [Compound 153]

- IC50 [3]: ≤ 200 nM
Compound: Cc1cc2c(C(N)=O)c(N)n(-c3c(C)c(O)cc(F)c3C)c2nc1C#N [Compound 143]

- IC50 [3]: ≤ 200 nM
Compound: Cc1cc2c(C(N)=O)c(N)n(-c3c(Cl)cc(F)c(O)c3C)c2nc1C [Compound 4]

- IC50 [3]: ≤ 200 nM
Compound: Cc1cc2c(C(N)=O)c(N)n(-c3c(C)c(O)cc(C(F)(F)F)c3C)c2nc1C [Compound 208]

- IC50 [3]: ≤ 200 nM
Compound: Cc1nc2c(cc1C#N)c(C(N)=O)c(N)n2-c1c(C)c(O)cc(F)c1C [Compound 137]

- IC50 [3]: ≤ 200 nM
Compound: Cc1cc2c(C(N)=O)c(N)n(-c3c(C)c(O)cc(Br)c3C)c2nc1C [Compound 196]
